Reference: paper PMC12751025, “α‑Aminoboronic Acid Moieties in Boro Dipeptides Modulate Proteasome Subunit Selectivity and Provide Access to Compounds with Potent Anticancer and Anti-Inflammatory Activity” (Journal of Medicinal Chemistry, 2025)

How the values were obtained:
Format in all cases: in vitro ADME
[1] = Metabolic stability in human liver microsomes; details: for half-life at 2 μM / k el at 2 μM / microsomal CLint at 2 μM: pH 7.4, human liver microsomes, 40 min
Protocol: Metabolic stability in human liver microsomes
Microsomal incubations were carried out in 96-well plates in 5 aliquots of 30 μL each (one for each time point). Liver microsomal incubation medium comprised of phosphate buffer (100 mM, pH 7.4), MgCl2 (3.3 mM), NADPН (3 mM), glucose-6-phosphate (5.3 mM), glucose-6-phosphate dehydrogenase (0.67 units/ml) with 0.42 mg of liver microsomal protein per mL. In the control reactions, the NADPH-cofactor system was substituted with phosphate buffer. Test compounds (2 μM, final acetonitrile concentration 1.6 %) were incubated with microsomes at 37 °C, shaking at 100 rpm. Five time points over 40 min were analyzed. The reactions were stopped by adding 4 volumes of acetonitrile with internal standard to incubation aliquots, followed by protein sedimentation by centrifuging at 5500 rpm for 5 min. Each reaction was performed in duplicates. Supernatants were analyzed using the HPLC system coupled with a tandem mass spectrometer. […]

[2] = Gastrointestinal tract parallel artificial membrane permeability (PAMPA) assay; details: GIT PAMPA; for Permeability, Log10 [cm/s]: pH 7.4, 50 μM, 4 hours; for Papp at 4 h, 50 μM: pH 7.4, read-out: Pe
Protocol: Gastrointestinal tract parallel artificial membrane permeability (PAMPA) assay All steps of the PAMPA were carried out according to the pION Inc. PAMPA Explorer™ Manual. The main principle of the assay is the incubation of the compound in the donor chamber (a well in the Donor Plate) with an aqueous buffer, which is separated from the acceptor chamber (a well in the Acceptor Plate) with another buffer by a phospholipid or hydrocarbon membrane fixed on a filter support. After the test, concentrations in the corresponding donor and acceptor wells are measured, and permeability is calculated. The GIT model was simulated using the GIT-0 phospholipid mix.
(§1) Verapamil, quinidine (high permeability), and ranitidine (low permeability) were used as reference […]
All compounds were tested in triplicate. Prisma HT buffer (pH 7.4) containing 50 μM test compounds (0.5% DMSO) was added to the Donor Plate wells. Acceptor Sink Buffer was added to each well of the Acceptor Plate. Incubation was done at room temperature for 4 hours without stirring. After […]
incubation, aliquots from both plates were transferred to optic UV-Vis plates, and optic plates were read on a microplate reader in absorbance mode in the range of 230-550 nm with a 4 nm step. Then, the apparent permeability coefficient was calculated. […]
In order to define non-specific loss of the compound during this assay, standard solution was created by mixing an aliquot of spiked plasma with blank buffer without dialysis. Two aliquots of the standard solution were incubated with shaking (250 rpm) at 37 °C, 5% CO2, and a saturating humidity (~95%) for 5 h (recovery samples). The other two aliquots were immediately diluted with acetonitrile and stored at 4 °C until LC-MS/MS analysis (stability samples). All samples were diluted 5-fold with 90% acetonitrile with internal standard with subsequent plasma proteins sedimentation by centrifuging at 6000 rpm for 5 min. Supernatants were analyzed using HPLC system coupled with tandem mass spectrometer. Verapamil was used as a reference compound to control proper assay […]
Bortezomib and its analogs are known to exist as the free boronic acid as well as dimeric and trimeric boronic anhydrides. These forms interconvert rapidly in solution and are indistinguishable by routine […]
activity of such compounds. On UHPLC, the interconverting boronic species were not chromatographically resolved; however, diastereomers were at least partially separated, yielding two distinct chromatographic signals with identical mass spectra. By contrast, the bortezomib reference standard produced a single chromatographic signal, consistent with its pure enantiomeric form (see

Caco-2 permeability = details: human; for Papp A→B at 90 min, 10 μM / Papp B→A at 90 min, 10 μM: pH 7.4, Caco-2, 10 μM; for Papp A→B at 90 min, 10 μM: apical-to-basolateral; for Papp B→A at 90 min, 10 μM: basolateral-to-apical
Protocol: Caco-2 cells were cultured in 75 cm2 flasks to 80-90% confluence in a humidified atmosphere at 37 °C and 5% CO2. Cells were detached with Trypsin/EDTA solution and resuspended in the complete medium containing DMEM high glucose (4500 mg/L) with L-glutamine (4 mM) supplemented with 10% […]
heat-inactivated Fetal Bovine Serum, 1% non-essential amino acids, and 730 nM puromycin and seeded at a density 5 × 10^5 cells in 75 cm2 flask. After 5 days, cells were trypsinized and resuspended in the complete medium to a final concentration of 600 × 10^3 cells/mL. 400 μL of the cell suspension was added to each well of the HTS 24-Multiwell Insert System and 25 mL of prewarmed complete medium was added to the feeder tray. Caco-2 cells were incubated in Multiwell Insert System for 6-10 days before the transport experiments. The medium in the filter plate and feeder tray was refreshed every other day. The 24-well insert plate was removed from its feeder plate and placed in a new sterile 24-well transport analysis plate. The inserts were washed with PBS after medium aspiration. Ketoprofen, atenolol, and digoxin were used as reference compounds.
To determine the rate of compounds transport in apical (A)-to-basolateral (B) direction, 300 μL of the test compound dissolved in transport buffer (Hanks’ BSS (9.5 g/L) and NaHCO3 (0.35 g/L) with MgSO4 to final concentration 0.81 mM, CaCl2 to final concentration 1.26 mM, HEPES to final concentration 25 mM, pH adjusted to 7.4) was added into the filter wells; 1000 μL of transport buffer was added to transport analysis plate wells. To determine transport rates in the basolateral (B)-to-apical (A) direction, 1000 μL of the test compound solutions was added into the wells of the transport analysis plate, the wells in the filter plate were filled with 300 μL of buffer. The final amount of reference and test compounds was 10 μM. The plates were incubated for 90 min at 37 °C under continuous shaking at 100 rpm. 75 μL aliquots were taken from the donor and receiver compartments for LC-MS/MS analysis. All samples were mixed with 2 volumes of acetonitrile followed by protein sedimentation by centrifuging at 10000 rpm for 10 min. Supernatants were analyzed using the HPLC system coupled with a tandem mass spectrometer. […]
The GIT model was simulated using the GIT-0 phospholipid mix.
as §1
All compounds were tested in triplicate. Prisma HT buffer (pH 7.4) containing 50 μM test compounds (0.5% DMSO) was added to the Donor Plate wells. Acceptor Sink Buffer was added to each well of the Acceptor Plate. Incubation was done at room temperature for 4 hours without stirring. After

## O=C(N[C@@H](Cc1ccccc1)C(=O)N[C@H](B(O)O)C1CCCC1)c1cnccn1 [5l, ((R)-Cyclopentyl((S)-3-phenyl-2-(pyrazine-2-carboxamido)propanamido)methyl)boronic Acid]
[1]; compared with bortezomib
  microsomal stability: higher microsomal stability
[1]
  half-life at 2 μM: 39.4 min
  k el at 2 μM: 0.0003 s⁻¹
  microsomal CLint at 2 μM: 42 µL/min/mg
[2]
  Pe: 158 nm/s
  Permeability, Log10 [cm/s]: -4.8 ± 0.06 Log10 [cm/s]
  Papp at 4 h, 50 μM: 158 nm/s
Caco-2 permeability; Caco-2, pH 7.4, quotient of Papp(BA) to Papp(AB)
  efflux ratio at 90 min, 10 μM: 8.4
Caco-2 permeability
  Papp A→B at 90 min, 10 μM: 20 ± 2 nm/s
  Papp B→A at 90 min, 10 μM: 171 ± 10 nm/s

## CC(C)C[C@H](NC(=O)[C@H](Cc1ccccc1)NC(=O)c1cnccn1)B(O)O [bortezomib, reference compound]
[1]
  half-life at 2 μM: 34.5 min
  k el at 2 μM: 0.000333 s⁻¹
  microsomal CLint at 2 μM: 48 µL/min/mg
[2]
  Pe: 158 nm/s
  Permeability, Log10 [cm/s]: -4.8 ± 0.02 Log10 [cm/s]
  Papp at 4 h, 50 μM: 158 nm/s
Caco-2 permeability
  Papp A→B at 90 min, 10 μM: 28 ± 1 nm/s
  Papp B→A at 90 min, 10 μM: 207 ± 1 nm/s
